# Reference: patent US6693217B2, “Antimalarial N,N′-substituted biguanides derived from hydroxylamines” (Jacobus Pharmaceutical Co., Inc., priority 2001, dated 2004)
# Values joined by “and” are separate entries in the source; they are usually repeats but may differ in a detail not shown here. Identical values can stand only once. Counter-ions that a name gives are not always drawn. Marks after values point to notes of the source that are not given here.
# Assays:
# [1] = Toxicity: testis weight/body weight after 106 days of drug treated feed; details: for Mean values for testes: Left, % body wt / Mean values for testes: Right, % body wt.: male CD-1 mice, 8-mice groups, drug treated feed 106 days (300 ppm first 79 days, 600 ppm days 80-106); for Mean values for testes: Left, % body wt: control 0.30; for Mean values for testes: Right, % body wt.: control 0.31; for Testis damage / observable pathology: organs examined for pathology after 106 days of drug treated feed; for Decrease in testis weight/body weight: after 106 days of drug treated feed
# Excerpt: Male CD-1 mice were fed drug treated feed for 106 days. For the first 79 days the drug level was 300 ppm and then 600 ppm for days 80-106. The animals were then sacrificed and the organs were both weighed and examined for pathology.
# [2] = system: Plasmodium berghei (KBG-173 strain); experiment: In vivo antimalarial activity, modified Thompson Test (Table II); parameters: species or system Charles River CD-1 mice; details: bid on days 3, 4, 5; for Average days Survival: 31 day experiment; for 6 day Parasetemia: % of red blood cells infected
# Procedure: In vivo^1 antimalarial activity was tested in male or female Charles River CD-1 mice that were 4-5 weeks old and weighed 20-25 g. They were housed in groups of 3 or 4 in standard plastic cages with wire tops, bed-o-cob® bedding, 12 hr/day of light, and maintained at 75° F. They were fed a standard Ralston Purina mouse chow and the cages and water bottles were changed twice a week. Test compounds were ground in a mortar and pestle and diluted with enough vehicle to give a volume of 10 mL/kg of mouse weight. The oral doses were prepared in 0.5% hydroxyethylcellulose-0.1% Tween-80. The amount of drug was calculated on the free base weight. The mice were infected intraperitoneally on day 0 with 5×10^4 erythrocytes parasitized with Plasmodium berghei (KBG-173 strain) from a donor mouse having a parasitemia between 5-10%. On days 3, 4, 5 the test compounds were administered bid, spaced 6 h apart, to mice. Smears were made from tail blood on day +6 and twice a week thereafter. The smears were stained with Geimsa and examined microscopically. Parasitemias are reported as the % of the red blood cells that are infected. On day 6 the (suppression of) parasitemias of treated animals may be compared to the parasitemias of infected non-treated controls, but these infected non-treated controls die on days 7-12. Activity was also measured by survival. Full activity is defined as all animals living at day 31. Partial activity is defined as days of increased survival versus the infected non-treated controls.
# ^1This in vivo model is a modification of the Thompson Test. For further description see Ager, A. L., Jr. Rodent Malaria Models. In Handbook of Experimental Pharmacology: Antimalarial Drugs. I. 68/1; Peters, W., Richards, W. H. G., Eds.: Springer-Verlag: Berlin, 1984, pp. 231-33.
# Plasmodium berghei = experiment: Comparison of antimalarial activity of analogs of PS-15 in infected mice (Table III); type: in vivo; details: orally bid on days 3, 4, 5 in HEC Tween, infection control 08.0
# Excerpt: Mice were infected with Plasmodium berghei on day 0 and the drugs were mixed in HEC Tween and given orally bid on days 3, 4, and 5 post infection. Blood films were taken on day 6 and twice weekly thereafter until day 30.
# [3] = in vivo
# [4] = system: drug-resistant clones of P. falciparum; details: cited from earlier work; for In vitro activity relative to comparator: drug-resistant clones of P. falciparum
# [5] = system: multidrug-resistant P. falciparum; details: administered orally to Aotus monkeys; cited from earlier work
# P. berghei = details: administered orally to mice infected with P. berghei; cited from earlier work
# [6] = cited from earlier work
Compound,"Mean values for testes: Left, % body wt [1] [% body wt]","Mean values for testes: Right, % body wt. [1] [% body wt.]",Testis damage / observable pathology [1],6 day Parasetemia ([2]; 64 mg/kg oral) [%],AVG. DAY OF DEATH (Plasmodium berghei; 16 MK/KG/DAY) [days],AVG. DAY OF DEATH (Plasmodium berghei; 32 MK/KG/DAY) [days],AVG. DAY OF DEATH (Plasmodium berghei; 64 MK/KG/DAY) [days],In vitro activity relative to comparator [4],Decrease in testis weight/body weight [1],Average days Survival ([2]; 16 mg/kg oral),6 day Parasetemia ([2]; 16 mg/kg oral),Average days Survival ([2]; 32 mg/kg oral),6 day Parasetemia ([2]; 32 mg/kg oral),Average days Survival ([2]; 64 mg/kg oral),further results
"CC(C)NC(=N)NC(=N)NOCCCOc1ccc(Cl)cc1Cl [2,4-Dichloro]",0.19,0.20,–,–,–,–,–,–,–,–,–,–,–,–,–
"CC(C)NC(=N)NC(=N)NOCCCOc1cc(Cl)c(Cl)cc1Cl [PS-15, N-[3-(2,4,5-trichlorophenoxy)propyloxy]-N′-(1-methylethyl)imidodicarbonimidediamide hydrochloride, reference compound]",0.21,0.22,Testis damage was found,0,15.1,15.7,17.0,more active than proguanil,–,–,–,–,–,–,"Average days Survival ([2]; 16 mg/kg oral, hydrochloride): 14.1 days and 15.1 days and 14.6 days and 13.6 days; 6 day Parasetemia ([2]; 16 mg/kg oral, hydrochloride): 1.8% and 2.7% and 1.94% and 1.1%; Average days Survival ([2]; 32 mg/kg oral, hydrochloride): 15.9 days and 17.8 days and 12.8 days and 21.8 days; 6 day Parasetemia ([2]; 32 mg/kg oral, hydrochloride): 0% and 0.006% and 0.01%; Average days Survival ([2]; 64 mg/kg oral, hydrochloride): >24.7 days and >31* days; Testicular toxicity [3]: caused testicular toxicity; Activity against drug-resistant Plasmodium falciparum ([4]; as described by Canfield et al. 1993): significant activity; Cross-resistance with other inhibitors of DHFR ([4]; versus pyrimethamine and cycloguanil): not cross-resistant; Activity relative to proguanil or WR99210 [5]: more active than either proquanil or WR99210; Activity relative to proguanil (P. berghei): more active; Toxicity relative to proguanil (P. berghei): less toxic than proguanil; Metabolism in vivo [6]: metabolized in vivo to WR99210"
"CC(C)NC(=N)NC(=N)NOCCCOc1ccc(F)c(F)c1 [3,4-Difluoro]",0.21,0.23,–,–,–,–,–,–,–,–,–,–,–,–,–
CC1(C)N=C(N)N=C(N)N1OCCCOc1cc(Cl)c(Cl)cc1Cl [WR99210],–,–,–,–,–,–,–,ten thousand times more active than the proquanil metabolite cycloguanil,–,–,–,–,–,–,–
"CC(C)NC(=N)NC(=N)NOCCCOc1ccc(Cl)c(Cl)c1 [PS-26, 1-[3-(3,4-dichlorophenoxy)propyloxy]-5-isopropylbiguanide(hemisuccinate)]",0.29,0.32,minimal to no observable pathology,0,16.6,15.5,–,–,no decrease in testis weight/body weight,15.7 days and 16.6 days and 16.0 days,0% and 0.006%,>29.3 days and >31 days,0%,>31* days,–
"CC(C)NC(=N)NC(=N)NOCCCOc1ccc(Cl)cc1 [PS-33, 1-[3-(4-chlorophenoxy)propyloxy]-5-isopropylbiguanide(hemisuccinate)]",0.27,0.36,minimal to no observable pathology,0,16.0,19.5,29.0,–,no decrease in testis weight/body weight,14.1 days and 15.1 days and 14.6 days and 13.6 days,1.8% and 2.7% and 1.94% and 1.1%,21.8 days and 15.9 days and 17.8 days and 12.8 days,0.01% and 0% and 0.006%,>31* days and >24.7 days,–
